Reference: patent publication US20050159599A1, “Cyclic compound, process for producing the same, and pest control agent” (priority 2002, published 2005)

Tests used:
Spodoptera litura [1] = test: Insecticidal effect for Spodoptera litura by immersion treatment of host crop root (Test Example 4); type: in vivo; settings: soybean root immersion 5 days, second-instar larvae of Spodoptera litura, fifth day after; for pest or weed control at 25 ppm: 120 h, read-out: rate of dead pests (%)
Protocol: Insecticidal Effect for Spodoptera litura by Immersion Treatment of Host Crop Root Roots of primary leaves developing stage soybean was washed with tap water to remove soil, and then immersed in a pesticidal solution which was prepared by dissolving 5 mg of test compound (represented by the compound Nos. in the above Examples) in 0.5 ml of acetone containing Tween 20 ([…]) with ion-exchange water, and which was filled in a light-shielded Erlenmeyer flask (100 ml). On the fifth day after immersion of root, two primary leaves were cut off, and the leaves were put into an ice cream cup (180 ml). Ten second-instar larvae of Spodoptera litura were set free therein, and the cup was left in a temperature-controlled breeding room (25° C.). On the fifth day after, the number of surviving Spodoptera litura was examined. The rate of dead pests was calculated by the following formula. rate of dead pests (%)=(number of dead pests/number of test pests)×100

Spodoptera litura [2] = test: Insecticidal effect for Spodoptera litura by spraying treatment to host crop (Test Example 2); type: in vivo; settings: 100 ppm, sprayed on soybean, third-instar larvae of Spodoptera litura, fifth day after; for pest or weed control at 100 ppm: 120 h, read-out: rate of dead pests (%)
Protocol: Insecticidal Effect for Spodoptera litura by Spraying Treatment to Host Crop
A pesticidal solution, which was prepared by dissolving 5 mg of test compound (represented by the compound Nos. in the above Examples) in 0.5-ml of acetone containing Tween 20 (trade name) and then diluting it to the prescribed concentration (100 ppm) with Dain (trade name, sticker) water diluted 5000-fold, was sprayed on a soybean whose primary leaves had developed completely with spray gun in the amounts wherein the pesticidal solution dripped. After drying the pesticidal solution, two primary leaves were cut off. The leaves were put into an ice cream cup (180 ml), and ten third-instar larvae of Spodoptera litura were set free therein. The cup was left in a temperature-controlled breeding room (25° C.). On the fifth day after, the number of surviving Spodoptera litura was examined. The rate of dead pests was calculated by the following formula. rate of dead pests (%)=(number of dead pests/number of test pests)×100

SMILES	rate of dead pests (%) (Spodoptera litura [1]; 25 ppm)	rate of dead pests (%) (Spodoptera litura [2])	rate of dead pests (%) (Spodoptera litura [1]; 5 ppm (so in the source))	pest or weed control at 25 ppm (Spodoptera litura [1]; 25 ppm) [%]	pest or weed control at 100 ppm (Spodoptera litura [2]) [%]
O=C(c1c(F)cccc1F)N1COCN(c2cc(Cl)c(SC(F)(F)F)cc2F)C1=O [I-98]	95	100			
O=C(c1c(F)cccc1F)N1C[S+]([O-])CN(c2cc(Cl)c(F)c(Cl)c2F)C1=O (stereo not drawn) [II-11]	100	100			
C#CCSc1ccc(N2COCN(C(=O)c3c(F)cccc3F)C2=O)c(F)c1 [I-62]		100	100		
O=C(c1c(F)cccc1Cl)N1COCN(c2ccc([S+]([O-])C(F)F)cc2F)C1=O (stereo not drawn) [I-219]	100	100			
O=C(c1c(F)cccc1F)N1COCN(c2ccc(SC(F)(F)F)cc2Cl)C1=O [I-74]	100	100			
O=C(c1c(F)cccc1F)N1COCN(CC(F)(F)F)C1=O [I-40]	100	100			
O=C(c1c(F)cccc1F)N1COCN(c2ccc(SC(F)(F)C(F)(F)F)cc2F)C1=O [I-128, 3-(2,6-difluorobenzoyl)-5-[2-fluoro-4-(1,1,2,2,2-pentafluoroethylthio)phenyl]tetrahydro-4H-1,3,5-oxadiazin-4-one]				100	100
O=C(c1c(F)cccc1Cl)N1COCN(c2ccc(S(=O)(=O)C(F)(F)C(F)(F)F)cc2F)C1=O [I-307]	90	100			
O=C(c1c(F)cccc1Cl)N1COCN(c2cc(F)c([S+]([O-])C(F)(F)F)cc2F)C1=O (stereo not drawn) [I-288]	100	100			
O=C(c1c(Cl)cccc1Cl)N1COCN(c2ccc([S+]([O-])C(F)(F)F)cc2F)C1=O (stereo not drawn) [I-399]	100	100			
O=C(c1c(F)cccc1F)N1CN(c2ccccc2)CN(c2ccc(Cl)cc2)C1=O [III-2, 1-(4-chlorophenyl)-3-(2,6-difluorobenzoyl)-5-phenyltetrahydro-1,3,5-triazin-2(1H)-one]				90	100
O=C(c1c(F)cccc1Cl)N1COCN(c2ccc([S+]([O-])C(F)(F)F)cc2Cl)C1=O (stereo not drawn) [I-252]	100	100			
O=C(c1c(F)cccc1F)N1COCN(c2ccc(Cl)cc2)C1=O [I-1, 3-(4-chlorophenyl)-5-(2,6-difluorobenzoyl)tetrahydro-4H-1,3,5-oxadiazin-4-one]				100	100
O=C(c1c(F)cccc1Cl)N1COCN(c2c(F)cc(SC(F)(F)F)cc2Cl)C1=O [I-278]	90	100			
O=C(c1c(F)cccc1F)N1COCN(c2ccc(SCC=C(Cl)Cl)cc2F)C1=O [I-37]	100	100			
O=C(c1c(F)cccc1Cl)N1COCN(c2cc(Cl)c(SC(F)(F)F)cc2F)C1=O [I-275]	100	100			
CS(=O)(=O)N1CN(C(=O)c2c(F)cccc2F)C(=O)N(c2ccc(Cl)cc2)C1 [III-12, 1-(4-chlorophenyl)-3-(2,6-difluorobenzoyl)-5-methanesulfonyltetrahydro-1,3,5-triazin-2(1H)-one]				100	100
Cc1c(N2COCN(C(=O)c3c(F)cccc3F)C2=O)ccc(SC(F)(F)F)c1Cl [I-122]	95	100			
